From patent publication US7781565B2 (priority 2006, dated 2010)
Entries after “also recorded” stand apart in the source; their conditions may differ.

Test system: NCI-60 cell lines
Type: cell-based, human

RDLRVHL was tested, and the “Cell Line (NCI-60 cell line the peptide and its motif are associated with)” value was “UACC62 Melanoma”.

For ARGRDEG, the “Cell Line the peptide is associated with (peptide recovered from phage library selection on this NCI-60 cell line)” value was “UO31 Renal”.

In the case of GRGVLAF, the “Cell Line (NCI-60 cell line the peptide is associated with)” value is reported as “KM-12C Colon”.

LRIARGV was tested, and the “Cell Line (NCI-60 cell line the peptide is associated with)” value was “COLO-205-Colon”.

In the case of LGVRLAS, the “Cell Line the peptide is associated with (peptide recovered from phage library selection on this NCI-60 cell line)” value is reported as “BT-549 Breast”.

LGGSRDL was tested, and the “Cell Line (NCI-60 cell line the peptide is associated with)” value was “HCT-116 Colon”.

With LGLVSTT the “Cell Line (NCI-60 cell line the peptide is associated with)” value was “HT-29 Colon”.

YGSGGRG was tested, and the “Cell Line (NCI-60 cell line the peptide is associated with)” value was “HT-29 Colon”.

For RGLQGGR, the “Cell Line (NCI-60 cell line the peptide and its motif are associated with)” value was “SK-MEL-2 Melanoma”.

For GAYGGLL, the “Cell Line (NCI-60 cell line the peptide is associated with)” value was “SF-268 CNS”.

For MPAGLGV, the “Cell Line the peptide is associated with (peptide recovered from phage library selection on this NCI-60 cell line)” value was “RXF393 Renal”.

In the case of GRVRETP, the “Cell Line (NCI-60 cell line the peptide and its motif are associated with)” value is reported as “UACC62 Melanoma”.

PGGGRGR was tested, and the “Cell Line the peptide is associated with (peptide recovered from phage library selection on this NCI-60 cell line)” value was “UO31 Renal”.

In the case of GSGRGVA, the “Cell Line with which the peptide (and its tripeptide motif) is associated” value (“Cell Line with which the peptide” for short) is reported as “Hop-92-Lung”.

GVVQAVS was tested, and the “Cell Line (NCI-60 cell line the peptide and its motif are associated with)” value was “SK-MEL-5 Melanoma”.

AGGFRFI was tested, and the “Cell Line (NCI-60 cell line the peptide and its motif are associated with)” value was “SK-MEL-2 Melanoma”.

With LLSTVWV the “Cell Line the peptide is associated with (peptide recovered from phage library selection on this NCI-60 cell line)” value was “TK-10 Renal”.

LLRGLEL was tested, and the “Cell Line with which the peptide” value was “HL-60-Leukemia”.

In the case of PTSGRLV, the “Cell Line (NCI-60 cell line the peptide and its motif are associated with)” value is reported as “PC3 Prostate”.

For TGVRNSP, the “Cell Line the peptide is associated with (peptide recovered from phage library selection on this NCI-60 cell line)” value was “UO31 Renal”.

In the case of TRLGGLT, the “Cell Line (NCI-60 cell line the peptide is associated with)” value is reported as “SF-295 CNS”.

In the case of FGGRSLS, the “Cell Line (NCI-60 cell line the peptide is associated with)” value is reported as “SNB-75 CNS”.

AAVWAAD was tested, and the “Cell Line with which the peptide” value was “HL-60-Leukemia”.

With FLRSLSL the “Cell Line (NCI-60 cell line the peptide and its motif are associated with)” value was “SK-MEL-5 Melanoma”.

In the case of WARAGGF, the “Cell Line (NCI-60 cell line the peptide is associated with)” value is reported as “SNB-19 CNS; also recorded: SF-539 CNS”.

VYWWGVS was tested, and the “Cell Line the peptide is associated with (peptide recovered from phage library selection on this NCI-60 cell line)” value was “A498 Renal”.

In the case of TSGRLWV, the “Cell Line (NCI-60 cell line the peptide and its motif are associated with)” value is reported as “M14 Melanoma”.

In the case of RNSRAGL, the “Cell Line the peptide is associated with (peptide recovered from phage library selection on this NCI-60 cell line)” value is reported as “UO31 Renal”.

In the case of LSVLRVL, the “Cell Line (NCI-60 cell line the peptide and its motif are associated with)” value is reported as “IGROV1 Ovarian”.

MSARGIL was tested, and the “Cell Line (NCI-60 cell line the peptide and its motif are associated with)” value was “SK-OV-3-3 Ovarian”.

With GRGLRTD the “Cell Line (NCI-60 cell line the peptide is associated with)” value was “SF-295 CNS”.

For HRLRSMS, the “Cell Line (NCI-60 cell line the peptide and its motif are associated with)” value was “UACC62 Melanoma”.

With HVRGRVA the “Cell Line (NCI-60 cell line the peptide and its motif are associated with)” value was “SK-MEL-5 Melanoma”.

In the case of GGSRGYR, the “Cell Line the peptide is associated with (peptide recovered from phage library selection on this NCI-60 cell line)” value is reported as “UO31 Renal”.

For GVSIYDL, the “Cell Line the peptide is associated with (peptide recovered from phage library selection on this NCI-60 cell line)” value was “SN12C Renal”.

For LSFSRGS, the “Cell Line with which the peptide” value was “HL-60-Leukemia”.

For NRSSGRR, the “Cell Line with which the peptide” value was “SR Leukemia”.

GRLDAFG was tested, and the “Cell Line (NCI-60 cell line the peptide and its motif are associated with)” value was “SK-MEL-5 Melanoma”.

RRGLGDA was tested, and the “Cell Line the peptide is associated with (peptide recovered from phage library selection on this NCI-60 cell line)” value was “TK-10 Renal”.

ARGVSAP was tested, and the “Cell Line (NCI-60 cell line the peptide is associated with)” value was “KM-12C Colon”.

For VAGRVGI, the “Cell Line (NCI-60 cell line the peptide and its motif are associated with)” value was “MALME-3M Melanoma” and the “Cell Line (NCI-60 cell line the peptide is associated with)” value was “MALME-3M Melanoma”.

In the case of ARSSIVR, the “Cell Line (NCI-60 cell line the peptide is associated with)” value is reported as “SF-268 CNS”.

With KSGSSVL the “Cell Line with which the peptide” value was “HL-60-Leukemia”.

For SVSGAGS, the “Cell Line (NCI-60 cell line the peptide and its motif are associated with)” value was “OVCAR-5 Ovarian”.
